The values below come from patent US4973691A, “Etheric derivative of 4(3H)-quinazolinone and a process for preparation thereof” (Spojene Podniky Prozdravotnickou Vyrobu (SPOFA), priority 1988, dated 1990).

One data set is described as follows: analgesic activity. In kind it is in vivo. To be noted: for ED50: po; for ED50 (analgesic activity): p.o.
Another data set can be described thus: in vivo. To be noted: po.
The conditions of data set [1]: extensive investigations in recent years; cited from earlier work.
Another data set is described as follows: gastrotoxicity. To be noted: in vivo.
Setting [2] is: LD50 (acute (short-time) toxicity).

Structures can show the parent of a compound that is named as a salt.

Usually ED50 stands for the dose that gives a 50% effect, or the effect in half of the subjects. Lower therefore signals an effect at a small dose. `CC(C)Cc1ccc(C(C)C(=O)O)cc1` (centres unmarked) [Ibuprofen, 2-(4-isobutylphenyl)propionic acid] gave an ED50 in the data set “analgesic activity” of 179 mg/kg.
What is called LD50 is the dose at which mortality reaches 50%. Low readings indicate a more toxic substance, high ones a less toxic substance. In the data set “in vivo”, `Cc1c(N(C)C)c(=O)n(-c2ccccc2)n1C` [Aminophenazone, 1-phenyl-2,3-dimethyl-4-dimethylamino-5-pyrazolone] displayed an LD50 of 800 mg/kg. In addition, the cancerogenic properties entry in data set [1] is on record as “potentially cancerogenic properties”. This compound also gave an ED50 in “analgesic activity” of 104 mg/kg.
In the case of `O=c1c2ccccc2ncn1CCOc1ccc(-c2ccc(F)cc2F)cc1` [Preferred etheric derivative (base), 3-[2-(2',4'-difluoro-4-biphenylyloxy)ethyl]-4(3H)-quinazolinone], the signs of cancerogenity entry in the data set “cancerogenity” is “free of any signs of gastrotoxicity and cancerogenity”. The compound further had a median lethal dose (LD50) in “in vivo” (setting [2]) of 1000 mg/kg. Besides, the “ED50 (analgesic activity)” value in “analgesic activity” was 71 mg/kg. The signs of gastrotoxicity result in “gastrotoxicity” is on record as “free of any signs of gastrotoxicity”.
Take `CC(=O)Nc1ccc(O)cc1` [Paracetamol, 4-hydroxyacetanilide]: the LD50 in the data set “in vivo” (setting [2]) amounted to 1090 mg/kg. The compound further had an ED50 in “analgesic activity” of 285 mg/kg.
As for `O=c1c2ccccc2ncn1CCOc1ccc(-c2ccc(F)cc2F)cc1`, in “in vivo” (setting [2]), the LD50 worked out at 2000 mg/kg.
For the compound `O=c1c2ccccc2ncn1CCOc1ccc(-c2ccc(F)cc2F)cc1` [Preferred etheric derivative (hydrochloride salt)], the “ED50 (analgesic activity)” value in the data set “analgesic activity” was 26 mg/kg.
Take `CC(=O)Oc1ccccc1C(=O)O` [Acetylosalicylic acid]: the LD50 in “in vivo” is 1070 mg/kg. In “analgesic activity”, this compound returned a 50% effective dose (ED50) of 190 mg/kg.
